{"source": "ChEMBL document CHEMBL1137164", "about": "“Antioxidative activities of novel diphenylalkyl piperazine derivatives with high affinities for the dopamine transporter” (Bioorg Med Chem Lett, 2004)", "note": "pIC50: −log10 of the molar value."}
{"species": "Canis familiaris", "assay": "inhibitory concentration against auto-oxidative lipid peroxidation in canine brain homogenate"}
{"smiles": "CN(C)c1ccc(NCC(O)CN2CCN(CCCC(c3ccc(F)cc3)c3ccc(F)cc3)CC2)cc1", "note": "(stereo unspecified)", "pIC50": 5.66}
{"smiles": "Nc1ccc(NCC(O)CN2CCN(CCCC(c3ccc(F)cc3)c3ccc(F)cc3)CC2)cc1", "note": "(stereo unspecified)", "pIC50": 5.57}
{"smiles": "Oc1ccc(NCC(O)CN2CCN(CCCC(c3ccc(F)cc3)c3ccc(F)cc3)CC2)cc1", "note": "(stereo unspecified)", "pIC50": 6.49}
{"smiles": "CC(C)(C)c1cc(NCC(O)CN2CCN(CCCC(c3ccc(F)cc3)c3ccc(F)cc3)CC2)cc(C(C)(C)C)c1O", "note": "(stereo unspecified)", "pIC50": 5.55}
{"smiles": "COc1cc(NCC(O)CN2CCN(CCCC(c3ccc(F)cc3)c3ccc(F)cc3)CC2)cc(OC)c1OC", "note": "(stereo unspecified)", "pIC50": 5.85}
{"smiles": "OC(CNc1ccc(Cl)cc1)CN1CCN(CCCC(c2ccc(F)cc2)c2ccc(F)cc2)CC1", "note": "(stereo unspecified)", "pIC50": 5.07}
{"smiles": "OC(CNc1ccc(Cl)c(Cl)c1)CN1CCN(CCCC(c2ccc(F)cc2)c2ccc(F)cc2)CC1", "note": "(stereo unspecified)", "pIC50": 4.64}
{"smiles": "OC(CNc1ccccc1)CN1CCN(CCCC(c2ccc(F)cc2)c2ccc(F)cc2)CC1", "note": "(stereo unspecified)", "pIC50": 5.19}
{"smiles": "O=[N+]([O-])c1ccc(NCC(O)CN2CCN(CCCC(c3ccc(F)cc3)c3ccc(F)cc3)CC2)cc1", "note": "(stereo unspecified)", "pIC50": 3.74}
{"smiles": "OC(CNc1ccccc1)CN1CCN(CCCCC(c2ccc(F)cc2)c2ccc(F)cc2)CC1", "note": "(stereo unspecified)", "pIC50": 5.08}
{"smiles": "OC(CNc1ccccc1)CN1CCN(C(c2ccc(F)cc2)c2ccc(F)cc2)CC1", "note": "(stereo unspecified)", "pIC50": 5.16}
{"smiles": "OC(CNc1ccccc1)CN1CCN(CCC(c2ccc(F)cc2)c2ccc(F)cc2)CC1", "note": "(stereo unspecified)", "pIC50": 4.96}
{"smiles": "COc1ccc(NCC(O)CN2CCN(CCCC(c3ccc(F)cc3)c3ccc(F)cc3)CC2)cc1", "note": "(stereo unspecified)", "pIC50": 5.80}
{"smiles": "OC(CNc1ccccc1)CN1CCN(CC(c2ccc(F)cc2)c2ccc(F)cc2)CC1", "note": "(stereo unspecified)", "pIC50": 4.96}
{"smiles": "Cc1ccc(NCC(O)CN2CCN(CCCC(c3ccc(F)cc3)c3ccc(F)cc3)CC2)cc1", "note": "(stereo unspecified)", "pIC50": 5.21}
{"smiles": "Cc1c(C)c2c(c(C)c1O)CC[C@@](C)(CCC[C@H](C)CCC[C@H](C)CCCC(C)C)O2", "note": "[ALPHA-TOCOPHEROL]", "pIC50": 5.82}
